For orientation: EC50 means the concentration at which the effect is half-maximal. The term CC50 denotes the concentration giving 50% cytotoxicity.

For data set [1], the system named is L. (L.) infantum promastigotes. Put plainly: in vitro activity against promastigote forms of L. (L.) infantum. Format: cell-based, Leishmania (L.) infantum. Conditions: for EC50: Leishmania infantum, L. (L.) infantum promastigotes, read-out: Ec50 Promastigote (μm) ± SD. How it is done: (§1) Evaluation of in vitro activity against promastigote and amastigote forms of L. (L.) infantum was performed as previously reported assays.[40]−[43] The CC50 and EC50 values were calculated using sigmoidal dose–response curves using Graph Pad Prism 5.0 software. One-way ANOVA testing with Tukey’s multiple comparison tests were used for evaluation of the statistical significance (p-value) of differences between the samples, which were tested in duplicate and all assays were repeated at least twice.

In data set [2] the test system is L. (L.) infantum intracellular amastigotes. Description: ex-vivo assay using intracellular amastigotes of L. (L.) infantum. Format: cell-based, Leishmania (L.) infantum. Conditions: for EC50: Leishmania infantum, L. (L.) infantum intracellular amastigotes, read-out: Ec50 Amastigote (μm) ± SD; for S.I. amastigote (selectivity index): CC50 against NCTC cells/EC50 against amastigotes. How it is done:
as §1

The nature of data set [3]: in vitro mammalian toxicity against NCTC cells. Format: cell-based. Particulars: 50% cytotoxic concentration, read-out: Cc50 Nctc (μm) ± SD. How it is done: Evaluation of in vitro mammalian toxicity against NCTC cells was performed as previously described.[40] The selectivity index was determined using the following equation: CC50 against NCTC cells/EC50 against amastigotes.[44] The CC50 and EC50 values were calculated using sigmoidal dose–response curves using Graph Pad Prism 5.0 software. One-way ANOVA testing with Tukey’s multiple comparison tests were used for evaluation of the statistical significance (p-value) of differences between the samples, which were tested in duplicate and all assays were repeated at least twice.

The subject of data set [4] is L. (L.) infantum promastigotes. Format: cell-based, Leishmania (L.) infantum. Conditions: 9 at 141.5 μM, 10 at 110.1 μM, after 240 min. How it is done: Figure 5 Evaluation of ROS in promastigotes of L. (L.) infantum treated with compounds 9 (141.5 μM) or 10 (110.1 μM). […]
Measurements of ROS were conducted as previously reported.[48] Briefly, promastigotes were treated with compounds 9 (141.5 μM) or 10 (110.1 μM) in HBSS+Glu at 24 °C using H2DCFDA (Molecular Probes). Fluorescence was measured using a fluorimetric microplate reader (FilterMax F5Multi-Mode, Molecular Devices) with excitation and emission filters at 485 and 520 nm, respectively.[48] Untreated and treated parasites (H2O2 - 40 μM) were used as negative and positive controls, respectively.

Data set [5] deals with L. (L.) infantum promastigotes. The data set is classed as cell-based, Leishmania (L.) infantum. The text has this:
Changes in the plasma membrane integrity of Leishmania spp. can lead to cell death due to pore formation, pH imbalance, and nutrient-transport failure. Initially, the fluorescent probe Sytox Green was employed to analyze the permeability of the plasma membrane. […] Untreated parasites were used as a negative control for normalization (0% permeabilization) whereas the nonionic surfactant Triton X-100 was used for as positive control (100% permeabilization).
Figure 4 Plasma membrane permeability in L. (L.) infantum promastigotes after 4 h of treatment with compound (A) 9 (141.5 μM) or (B) 10 (110.1 μM), using the fluorescent probe Sytox Green (p < 0.0001). Negative control: untreated parasites; positive control: Triton X-100 (TX-100).
Assays for determination of plasma membrane integrity of L. (L.) infantum were conducted as previously reported.[46] Briefly, compounds 9 (141.5 μM) and 10 (110.1 μM) were added to different wells and the resulting fluorescence was measured using a fluorimetric microplate reader (FilterMax F5Multi-Mode, Molecular Devices). Triton X-100 (0.5%, v/v) and untreated parasites were used as positive negative controls, respectively.[47]

On to `CCC/C=C/CCCNC(=O)c1ccc([N+](=O)[O-])cc1` [Compound 7, (E)-4-Nitro-N-(oct-4-en-1-yl)benzamide], for which the EC50 is 49.8 ± 4 µM in data set [1] and greater than 100 µM in data set [2]. In addition, the CC50 in data set [3] is 158 ± 37.3 µM.
Turning to `CCCCC(CC)CNC(=O)c1ccc(C(C)(C)C)cc1` (centres unmarked) [Compound 12, N-(2-Ethylhexyl)-4-(tert-butyl)benzamide], in data set [1], the “activity against promastigotes (in words)” value (“activity” for short) is “inactive” and the concentration giving a half-maximal response (EC50) was greater than 150 µM. In data set [2], the “S.I. amastigote (selectivity index)” value is reported as greater than 39.2 and the concentration for a half-maximal effect (EC50) was determined as 5.1 ± 1.9 µM. Further, the half-maximal cytotoxic concentration (CC50) in data set [3] was greater than 200 µM.
Consider `CCCCCC/C=C/CCc1ccc(O)cc1` [Gibbilimbol B, gibbilimbol B], for which the EC50 in data set [1] is 99.4 ± 2.1 µM. Further, in data set [2], the “S.I. amastigote (selectivity index)” value is reported as greater than 2.1 and the EC50 is 95.1 ± 1.5 µM. The half-maximal cytotoxic concentration (CC50) in data set [3] is greater than 200 µM.
In the case of `CCCCC(CC)CNC(=O)c1ccc(F)cc1` (centres unmarked) [Compound 8, N-(2-Ethylhexyl)-4-fluorobenzamide], the EC50 in data set [1] is 64.1 ± 3.5 µM; in data set [2], greater than 100 µM. For the same compound, the 50% cytotoxic concentration (CC50) in data set [3] came out at 156.8 ± 1 µM.
As for `CCC/C=C/CCCNC(=O)c1ccc(OC)cc1` [Compound 3, (E)-4-Methoxy-N-(oct-4-en-1-yl)benzamide], the “activity” value in data set [1] is “inactive”. Moreover, the EC50 was greater than 150 µM in data set [1] and greater than 100 µM in data set [2]. Also, the CC50 in data set [3] is greater than 200 µM.
Turning to `[N-]=[N+]=[N-].[Na+]` [Sodium azide, reference compound], the “ROS levels compared with negative control (H2DCFDA)” value in data set [4] was “maximum production of ROS”.
For `CCC/C=C/CCCNC(=O)c1ccc(Cl)cc1` [Compound 5, (E)-4-Chloro-N-(oct-4-en-1-yl)benzamides], the EC50 was 73.3 ± 4.3 µM in data set [1] and greater than 100 µM in data set [2]. Further, the CC50 in data set [3] was greater than 200 µM.
For `CCC/C=C/CCCNC(=O)c1ccc(F)cc1` [Compound 4, (E)-4-Fluoro-N-(oct-4-en-1-yl)benzamide], in that order: 67.4 ± 1.3 µM, greater than 100 µM and greater than 200 µM.
Consider `CCC/C=C/CCCNC(=O)c1ccccc1` [Compound 1, (E)-N-(Oct-4-en-1-yl)benzamide], for which, in data set [1], the “activity” value was “inactive” and the EC50 is greater than 100 µM. Further, the EC50 in data set [2] is greater than 100 µM. The 50% cytotoxic concentration (CC50) in data set [3] was greater than 200 µM.
Take `CCC/C=C/CCCNC(=O)c1ccc(C)cc1` [Compound 2, (E)-4-Methyl-N-(oct-4-en-1-yl)benzamide]: the results for the EC50 in data set [1] and in data set [2] were 66.9 ± 6.4 µM and greater than 100 µM, respectively. Moreover, the CC50 in data set [3] was greater than 200 µM.
Take `CCCCC(CC)CNC(=O)c1ccc(C)cc1` (centres unmarked) [Compound 11, N-(2-Ethylhexyl)-4-methylbenzamide]: the values for the EC50 in data set [1] and in data set [2] were 66.3 ± 6 µM and greater than 100 µM, respectively. Moreover, the CC50 in data set [3] is greater than 200 µM.
For the compound `CCCCCCCCCCCCCCCCOP(=O)([O-])OCC[N+](C)(C)C` [Miltefosine, miltefosine, reference compound], the concentration giving a half-maximal response (EC50) in data set [1] came out at 5.1 ± 0.6 µM. Also, in data set [2], the “S.I. amastigote (selectivity index)” value amounted to 18.4 and the EC50 came to 6.5 ± 3 µM. In data set [3], the 50% cytotoxic concentration (CC50) was 120 ± 4.2 µM.
In the case of `CCC/C=C/CCCNC(=O)c1ccc(C(C)(C)C)cc1` [Compound 6, (E)-4-(tert-butyl)-N-(oct-4-en-1-yl)benzamide], the half-maximal effective concentration (EC50) was 66 ± 1 µM in data set [1] and greater than 100 µM in data set [2]. The 50% cytotoxic concentration (CC50) in data set [3] is greater than 200 µM.
Take Triton X-100 [reference compound]: in data set [5], the “permeabilization of the plasma membrane (Sytox Green)” value was “maximum permeabilization”.

The values above are taken from article PMC11541474, “Toward New Therapeutics for Visceral Leishmaniasis: Efficacy and Mechanism of Action of Amides Inspired by Gibbilimbol B” (ACS Omega, 2024).
